Measured values taken from patent US20220356163A1, “SMALL MOLECULE INHIBITORS OF Id PROTEINS” (MEMORIAL SLOAN KETTERING CANCER CENTER, priority 2019, published 2022).

Tests used:
[1] = biological target: T1, Id1 (59-104) (Mus musculus, UniProt P20067); test: UV crosslinking of AGX51-XL2 to purified Id1 with mass spectrometry; format: binding; conditions: 10-fold excess of AGX51
T1 construct: 1 μg of purified Id1 (a.a.59-104) and 19.7 ng of AGX51-XL2; made in house; host or cells: E. coli Rosetta 2(DE3)
T1 sequence (P20067 59-104): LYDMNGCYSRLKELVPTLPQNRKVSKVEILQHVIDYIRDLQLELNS
Experimental: Covalent binding of AGX51 derivative to Id1. An analog of AGX51 (AGX51-XL2) was used which contains a benzophenone photoreactive moiety. 1 μg of purified Id1 (a.a.59-104) and 19.7 ng of AGX51-XL2 (dissolved in DMSO) were combined, in the dark, and then exposed to UV light for 20 minutes, a negative control without UV exposure was also included. The samples were then run in the dark on a 15% denaturing gel, silver stained according to the manufacturers protocol (SilverQuest Staining Kit, Invitrogen, Grand Island, N.Y., USA) and bands were excised for mass spectrometry as described below.
In-gel digestion for mass spectrometry. In-gel digestion was performed using the method by Shevchenko et al. (Nat Protoc 1(6):2856-60 (2006)). Briefly, gel bands were excised, washed with 1:1 (Acetonitrile: 100 mM ammonium bicarbonate) for 30 minutes, dehydrated with 100% acetonitrile for 10 minutes until gel slices shrunk and excess acetonitrile was removed and slices were dried in a speed-vac for 10 minutes without heat. Gel slices were reduced with 5 mM DTT for 30 minutes at 56° C. in a thermostated mixer with gentle mixing, removed, allowed to cool to room temperature then alkylated with 11 mM IAA for 30 minutes in the dark. Gel slices were washed with 100 mM ammonium bicarbonate and 100% acetonitrile for 10 minutes each. […]

[2] = Concentration of AGX51 in the eyes after i.p. dosing; format: in vivo, mouse; conditions: 30 mg/kg i.p.
Experimental: Pharmacokinetic analyses. To determine the pharmacokinetic parameters of AGX51, eight-week old male Balb/c mice (Taconic farms) were dosed once by i.p. injection with 30 mg/kg, 50 mg/kg or 100 mg/kg AGX51 prepared in 70% DMSO (n=3 mice per group). Another set of three mice was dosed with 100 mg/kg AGX51 prepared in 100% DMSO. Blood was collected at 30 minutes, 1 hour, 3 hours, 6 hours and 24 hours post AGX51 administration and plasma analyzed via LC-MS as per the protocol previously validated in the MSKCC Antitumor Assessment Core Facility. Following blood collection, the mice were sacrificed via CO2 asphyxiation and the eyes from the 30 mg/kg treatment group were collected and flash frozen for analysis. Data obtained from LC-MS was analyzed via WinNonLin software (version 8.1) for pharmacokinetic parameters.
The concentration of AGX51 was thus measured in the eyes of mice dosed i.p. with 30 mg/kg AGX51 by mass spectrometry over 24 hours. […] The amount of AGX51 reaching the eye was well below the amount required by intraocular injection to show efficacy, which could be due to incomplete recovery from the extraction of dissected eyes or that effective dose ranges vary considerably with delivery route.

[3] = test system: ID1 mRNA; test: qRT-PCR for ID1 in HCT116 cells; format: cell-based; conditions: 40 μM, 24 hours
Experimental: qRT-PCR. RNA was extracted using the RNeasy kit (Qiagen, Valencia, Calif., USA) and cDNA was generated from 1 μg of RNA using SuperScript IV First-Strand Synthesis System (Invitrogen, Grand Island, N.Y., USA). Quantitative PCR was performed using SYBR Green QuantiTect Primer Assay (Qiagen) according to manufacturer's instructions in a 7900HT Fast-Real Time PCR System Instrument (Applied Biosystems, Grand Island, N.Y., USA). Primer pairs for the individual genes were obtained from the bioinformatically validated QuantiTect Library and are as follows: ID1 (QT00230650), ID3 (QT01673336), and GAPDH (QT01192646). The fold changes in gene expression were calculated using the delta-delta CT method.

Structure (SMILES): CCC(=O)N(CCC(c1ccc2c(c1)OCO2)c1ccccc1OC)Cc1ccccc1 (racemic) [AGX51, N-(3-(benzo[d][1,3]dioxol-5-yl)-3-(2-methoxyphenyl)propyl)-N-benzylpropionamide]
- AGX51-XL2 binding to Id1 in presence of competitor [1]: significant decrease in AGX51-XL2 binding to Id1
- half-life in the eye [2]: 3.7 h
- maximum concentration in the eye ([2]; after 30 minutes): ~4 ng/eye
- ID1 mRNA levels [3]: increase in ID1 mRNA levels
